# Laboratory results published in patent publication US20090232735A1, “USE OF FRUCTOSE-BASED THERAPIES FOR THE TREATMENT OF CANCER” (CEDARS-SINAI MEDICAL CENTER, priority 2005, published 2009).
# Experiments:
# [1] = test system: AP-1 activation in a primary culture of a pancreatic tumor; experiment: AP-1 probe binding assay, primary pancreatic tumor culture; format: cell-based, human; settings: 5.5 mM sugar
# Description: FIG. 24 depicts luciferase activity of PANC-1 cells and primary culture of surgically resected pancreatic tumor cells in accordance with an embodiment of the present invention. PANC-1 pancreatic cancer cells and a primary culture of a surgically resected pancreatic tumor were incubated in 2 mM glucose, 5.5 mM glucose or 5.5 mM fructose for 48 h, after which nuclear extracts were incubated with a biotinylated AP-1 probe, and detected by an antibody-linked colorimetric method. *, p<0.01
# In separate experiments PANC-1 cells, and primary cultures of surgically resected pancreatic tumors were incubated in 2 mM glucose, or 5.5 mM glucose or 5.5 mM fructose for 48 h, after which nuclear extracts were incubated with a biotinylated AP-1 probe in binding buffer. AP-1/AP1 probe complexes were next conjugated to a streptavidin-coated assay plate and detected using an AP-1 specific antibody, followed by binding of a horseradish-peroxidase conjugated secondary antibody, and detection by a colorimetric reagent.
# [2] = test system: transketolase (TKK); experiment: Transketolase activity (NADH oxidation) in PANC-1 lysates; format: cell-based, human; settings: PANC-1, 5.5 mM fructose
# Description: FIG. 34 depicts quantitation of transketolase activity in pancreatic cancer PANC-1 cells following incubation in 2 mM glucose, 5.5 mM glucose, and 5.5 mM fructose for 24 h, 48 h, and 72 h respectively, in accordance with an embodiment of the present invention.
# The inventors believe that fructose-treatment of pancreatic cancer cells led to an increase in TKK-driven nucleic acid synthesis, and thus fructose-treatment would result in an increase in either PANC-1 TKK expression and/or activity in comparison to equivalent glucose concentrations. Western blot analysis on protein lysates derived from fructose-, and glucose-treated PANC-1 cells were performed (5.5 mM fructose, and glucose for 24, and 48 h as per previous protocol) using a specific TKK antibody, and compared TKK expression in the fructose-, and glucose-treated PANC-1 cells. As depicted in FIG. 33, TKK expression at 24 h, and 48 h in protein lysates derived from 5.5 mM glucose-treated PANC-1 cells was increased in comparison to expression in 2 mM glucose-treated cells. However, highest TKK expression was observed after 5.5 mM fructose treatment at 24 h, and 48 h, and TKK levels were almost 2-fold higher in 5.5 mM fructose-treated, in comparison to 5.5 mM glucose-treated cells (p<0.01). […] After gentle mixing the absorbance of the mixture was measured at 10 min intervals for 2 h at 340 nm. Transketolase activity was then derived from the difference in absorbance at 10, and 80 minutes, and expressed as nmol/min/million cells. […] Pancreatic cancer proliferation rates were then measured using the MTS assay (FIG. 35).
# [3] = Serum fructose and glucose in normal volunteers after two cans of soda; format: in vivo, human
# Description: FIG. 37 depicts fasting serum fructose and glucose levels in patients with pancreatic cancer and in normal volunteers in accordance with an embodiment of the present invention. (a) Fasting serum fructose and glucose levels in 6 patients with pancreatic cancer on the morning of resection. (b) Serum fructose, and glucose levels (Mean±SEM) in 3 normal volunteers after a 10 h fast, followed by ingestion of two cans of soda, containing 76 g of carbohydrate in the form of high fructose corn syrup (55% fructose, 45% glucose).
# The normal circulating concentrations of fructose are unknown. […] Briefly, aliquots (20 μl) of fructose standards (0.1, 0.5, 1, 2, 4, 6, and 8 mM) or unknown serum samples were mixed with 5 μl of a stock solution (125 U/ml) of the enzyme fructose dehydrogenase (Sigma) in 175 μl citric acid (0.05 M) phosphate (0.09 M) buffer (pH 4.5), and 20 μl of 3-(4,5-dimethylthiazol-2-yl)-2,5-diphenyltetrazolium bromide (MTT), and phenazine methosulfate (Promega), incubated for 30 minutes, after which absorbance at 570 nm was recorded in a 96-well spectrophotometer. […] As the first analysis, in accordance with institutional review board guidelines, the inventors obtained 32 serum samples randomly selected from anonymous inpatients at Cedars-Sinai Medical Center. The inventors also measured glucose in these same samples using standard glucose oxidase based methods. No details of medical condition were known for these patients, and as depicted in FIG. 36, in 24 of these 32 patients, serum fructose was greater than 5 mM. This intriguing result prompted the inventors to examine serum fructose levels in two other settings. Firstly, the inventors drew fasting blood samples from 6 patients with pancreatic cancer on the morning of surgical tumor resection. As depicted in FIG. 37a, 4 of these 6 patients had fasting serum fructose levels >5 mM, and two patients had serum fructose concentrations of ˜12 mM. The significance of these findings in pancreatic cancer patients is at this point unclear, but the inventors believe that the fructose-mediated pro-proliferative effects seen in pancreatic cancer cells in vitro are of significance, given the circulating fructose concentrations the inventors measured. In a further experiment, 3 normal volunteers fasted for 10 hours, an indwelling cannula was placed in a forearm vein, baseline fasting blood drawn, after which they drank two cans of regular soda, which contained 76 g of sugars, almost exclusively high fructose corn syrup. This source of carbohydrate was chosen to approximate to equivalent glucose concentrations used in a standard 75 g glucose tolerance test, and to bear relevance that dietary sources of high content refined fructose may pose an independent risk factor for pancreatic cancer growth.
smiles,measurement,setting,value
O=C(CO)[C@@H](O)[C@H](O)[C@H](O)CO [fructose],increase in AP-1 activation compared to 2 mM glucose,[1],2.1 fold
same,TKK activity higher than 5.5 mM glucose-treated cells,[2]; 24 h,2 fold
same,TKK activity higher than 5.5 mM glucose-treated cells,[2]; 48 h,3 fold
same,TKK activity higher than 5.5 mM glucose-treated cells,[2]; 72 h,1.7 fold
same,mean fasting fructose level,"[3]; 3 normal volunteers, 10 h fast, before soda",2.66 mM
same,mean serum fructose peak,[3]; 30 minutes after two sodas,17 mM
same,serum fructose levels,[3]; for the 2 hour duration of blood sampling after two sodas,greater than 5 mM
same,mean serum fructose levels,"[3]; within 15 minutes after two sodas (76 g sugars, high fructose corn syrup)",16.5 mM
